Data as given in US20130324503A1, “Method of identifying and treating a person having a predisposition to or afflicted with Parkinson disease” (Health Research Inc., priority 2010, published 2013).
Like-named read-outs stand apart in the source and are kept apart here.

Assays:
[1] = in vivo; cited from earlier work
[2] = tested on: D. melanogaster w^1118 females
Experimental: (§1) All experiments were conducted with D. melanogaster w^1118 females (Bloomington Drosophila Stock Center) kept at consistent conditions at 25° C., 55% humidity, and ambient light. […] Flies were transferred to new vials every other day. […] These solutions were prepared fresh before each batch of media preparation and were added to warmed, liquefied standard fly food (prepared with agar, cornmeal, sucrose and yeast) and mixed thoroughly prior to pouring into vials. Food was prepared fresh at least monthly.
Flies were followed according to the same protocol, counting dead flies daily until all were dead. Survival data were plotted using Kaplan Meier survival analysis^17, mean and median survival times were calculated, and the differences between the survival curves were tested using log rank statistics in SPSS.

[3] = tested on: D. melanogaster w^1118 females; conditions: in vivo
Experimental: as §1

CG14691 = format: in vivo, D. melanogaster; conditions: 5 mM paraquat for six days, compared to untreated flies
Experimental: as §1

[4] = 5 mM paraquat, nicotine 0 mg/ml

SMILES | Oral bioavailability [1] | Nicotine restored survival of paraquat-treated flies ([2]; in vivo) | effect on survival ([2]; in vivo) | improvement of survival of paraquat-treated flies ([2]; in vivo) | effect on survival [3] | shortening of lifespan ([2]; 5 mM paraquat vs untreated flies) | Mean survival Days ± SE [2, 4] | Median survival Days ± SE [2, 4] | Reduction of median survival by paraquat ([2]; in vivo) | rise in CG14691 expression (CG14691)
CN1CCC[C@H]1c1cccnc1 [nicotine, 1-methyl-2-(3-pyridyl)pyrrolidone] | about 30% | ≤ 25% | beneficial effect | up to 25% | did not have a notable effect on survival |  |  |  |  | 
C[n+]1ccc(-c2cc[n+](C)cc2)cc1 [paraquat, Methyl viologen dichloride hydrate] |  |  |  |  |  | 63% | 14.0 ± 0.4 days | 16 ± 0.5 days | Paraquat reduced median survival by 63% | 8%
